Assay results as given in US10131652B2, “Pyrimidinyloxy benzene derivatives as herbicides” (E. I. DU PONT DE NEMOURS AND COMPANY, priority 2014, dated 2018).
Like-named read-outs stand apart in the source and are kept apart here.

Key:
Experiment in all cases: Test E pre-/postemergence plant response
Format in all cases: in vivo
[1] = tested on: field violet (Viola arvensis); settings: scale 0 to 100, read-out: Plant response rating, Field Violet; for pest or weed control at 16 g/ha: 16 g ai/ha; for pest or weed control at 31 g/ha: 31 g ai/ha; for pest or weed control at 62 g/ha: 62 g ai/ha; for pest or weed control at 125 g/ha: 125 g ai/ha
How it was run: (§1)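 Pre-emergence: seeds sown in silt loam soil and sprayed with test chemicals in a non-phytotoxic solvent/surfactant mix. Post-emergence: plants at 2–18 cm (1- to 4-leaf stage) in peat/vermiculite medium treated with the same formulation. Visual rating versus controls after 7–21 days, 0 (no effect) to 100 (complete control).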

[2] = tested on: lambsquarters (Chenopodium album); settings: scale 0 to 100, read-out: Plant response rating, Lambsquarters; for pest or weed control at 16 g/ha: 16 g ai/ha; for pest or weed control at 31 g/ha: 31 g ai/ha; for pest or weed control at 62 g/ha: 62 g ai/ha; for pest or weed control at 125 g/ha: 125 g ai/ha
How it was run: as §1

[3] = tested on: Italian ryegrass (Lolium multiflorum); settings: scale 0 to 100, read-out: Plant response rating, Ryegrass, Italian; for pest or weed control at 16 g/ha: 16 g ai/ha; for pest or weed control at 31 g/ha: 31 g ai/ha; for pest or weed control at 62 g/ha: 62 g ai/ha; for pest or weed control at 125 g/ha: 125 g ai/ha
How it was run: as §1

[4] = tested on: wild radish (Raphanus raphanistrum); settings: scale 0 to 100, read-out: Plant response rating, Radish, Wild; for pest or weed control at 16 g/ha: 16 g ai/ha; for pest or weed control at 31 g/ha: 31 g ai/ha; for pest or weed control at 62 g/ha: 62 g ai/ha; for pest or weed control at 125 g/ha: 125 g ai/ha
How it was run: as §1

[5] = tested on: spring barley (Hordeum vulgare); settings: for plant injury at 16 g/ha: 16 g ai/ha; for plant injury at 31 g/ha: 31 g ai/ha; for plant injury at 62 g/ha: 62 g ai/ha; for plant injury at 125 g/ha: 125 g ai/ha
How it was run: as §1

[6] = tested on: bluegrass (annual bluegrass, Poa annua); settings: scale 0 to 100, read-out: Plant response rating, Bluegrass; for pest or weed control at 16 g/ha: 16 g ai/ha; for pest or weed control at 31 g/ha: 31 g ai/ha; for pest or weed control at 62 g/ha: 62 g ai/ha; for pest or weed control at 125 g/ha: 125 g ai/ha
How it was run: as §1

[7] = tested on: spring wheat (Triticum aestivum); settings: scale 0 to 100, read-out: Plant response rating, Wheat, Spring; for plant injury at 16 g/ha: 16 g ai/ha; for plant injury at 62 g/ha: 62 g ai/ha; for plant injury at 125 g/ha: 125 g ai/ha
How it was run: as §1

[8] = tested on: chickweed (common chickweed, Stellaria media); settings: scale 0 to 100, read-out: Plant response rating, Chickweed; for pest or weed control at 16 g/ha: 16 g ai/ha; for pest or weed control at 31 g/ha: 31 g ai/ha; for pest or weed control at 62 g/ha: 62 g ai/ha; for pest or weed control at 125 g/ha: 125 g ai/ha
How it was run: as §1

[9] = tested on: galium (catchweed bedstraw, Galium aparine); settings: scale 0 to 100, read-out: Plant response rating, Galium; for pest or weed control at 16 g/ha: 16 g ai/ha; for pest or weed control at 31 g/ha: 31 g ai/ha; for pest or weed control at 62 g/ha: 62 g ai/ha; for pest or weed control at 125 g/ha: 125 g ai/ha
How it was run: as §1

[10] = tested on: winter wheat (Triticum aestivum); settings: scale 0 to 100, read-out: Plant response rating, Wheat, Winter; for plant injury at 16 g/ha: 16 g ai/ha; for plant injury at 62 g/ha: 62 g ai/ha; for plant injury at 125 g/ha: 125 g ai/ha
How it was run: as §1

[11] = tested on: speedwell (bird's-eye speedwell, Veronica persica); settings: scale 0 to 100, read-out: Plant response rating, Speedwell; for pest or weed control at 16 g/ha: 16 g ai/ha; for pest or weed control at 62 g/ha: 62 g ai/ha; for pest or weed control at 125 g/ha: 125 g ai/ha
How it was run: as §1

[12] = post-emergence, Postemergence, scale 0 to 100, read-out: Plant response rating, Barley, Spring
[13] = pre-emergence, Preemergence, scale 0 to 100, read-out: Plant response rating, Barley, Spring
[14] = post-emergence, 31 g ai/ha, Postemergence

Fc1cccc(Oc2ncc(Cl)cn2)c1-c1cc(C(F)F)on1 [Compound 55, 5-chloro-2-[2-[5-(difluoromethyl)-3-isoxazolyl]-3-fluorophenoxy]pyrimidine]
10%: plant injury at 16 g/ha [5, 12] | plant injury at 31 g/ha [5, 12] | plant injury at 16 g/ha [5, 13] | plant injury at 31 g/ha [5, 13] | pest or weed control at 31 g/ha ([6]; pre-emergence, Preemergence) | pest or weed control at 62 g/ha ([6]; pre-emergence, Preemergence) | pest or weed control at 16 g/ha ([9]; pre-emergence, Preemergence) | plant injury at 62 g/ha ([10]; pre-emergence, Preemergence)
75%: pest or weed control at 16 g/ha ([2]; post-emergence, Postemergence) | pest or weed control at 16 g/ha ([4]; post-emergence, Postemergence) | pest or weed control at 16 g/ha ([11]; post-emergence, Postemergence)
80%: pest or weed control at 31 g/ha ([1]; pre-emergence, Preemergence) | pest or weed control at 31 g/ha ([2]; post-emergence, Postemergence) | pest or weed control at 62 g/ha ([4]; post-emergence, Postemergence) | pest or weed control at 125 g/ha ([4]; post-emergence, Postemergence) | pest or weed control at 62 g/ha ([9]; post-emergence, Postemergence) | pest or weed control at 31 g/ha [11, 14]
5%: plant injury at 16 g/ha ([7]; post-emergence, Postemergence) | plant injury at 16 g/ha ([10]; pre-emergence, Preemergence)
95%: pest or weed control at 16 g/ha ([2]; pre-emergence, Preemergence)
15%: pest or weed control at 62 g/ha ([3]; post-emergence, Postemergence) | plant injury at 62 g/ha [5, 12] | pest or weed control at 62 g/ha ([6]; post-emergence, Postemergence) | plant injury at 31 g/ha [7, 14] | plant injury at 16 g/ha ([7]; pre-emergence, Preemergence) | plant injury at 62 g/ha ([7]; pre-emergence, Preemergence) | plant injury at 31 g/ha [10, 14]
65%: pest or weed control at 16 g/ha ([1]; post-emergence, Postemergence) | pest or weed control at 16 g/ha ([8]; pre-emergence, Preemergence)
70%: pest or weed control at 31 g/ha ([1]; post-emergence, Postemergence) | pest or weed control at 16 g/ha ([1]; pre-emergence, Preemergence) | pest or weed control at 31 g/ha ([4]; post-emergence, Postemergence) | pest or weed control at 16 g/ha ([4]; pre-emergence, Preemergence) | pest or weed control at 62 g/ha ([8]; post-emergence, Postemergence) | pest or weed control at 125 g/ha ([8]; post-emergence, Postemergence) | pest or weed control at 16 g/ha ([9]; post-emergence, Postemergence) | pest or weed control at 62 g/ha ([9]; pre-emergence, Preemergence)
85%: pest or weed control at 62 g/ha ([1]; post-emergence, Postemergence) | pest or weed control at 62 g/ha ([2]; post-emergence, Postemergence) | pest or weed control at 31 g/ha ([9]; post-emergence, Postemergence) | pest or weed control at 125 g/ha ([9]; post-emergence, Postemergence)
45%: plant injury at 62 g/ha [5, 13] | plant injury at 125 g/ha ([7]; post-emergence, Postemergence)
25%: pest or weed control at 125 g/ha ([6]; post-emergence, Postemergence) | plant injury at 62 g/ha ([7]; post-emergence, Postemergence)
40%: plant injury at 125 g/ha ([10]; post-emergence, Postemergence)
90%: pest or weed control at 125 g/ha ([1]; post-emergence, Postemergence) | pest or weed control at 125 g/ha ([2]; post-emergence, Postemergence)
20%: pest or weed control at 16 g/ha ([3]; post-emergence, Postemergence) | pest or weed control at 31 g/ha ([3]; post-emergence, Postemergence) | pest or weed control at 125 g/ha ([3]; post-emergence, Postemergence) | plant injury at 125 g/ha ([5]; post-emergence, Postemergence, scale 0 to 100 (0 no effect, 100 complete control), read-out: Plant response rating, Barley, Spring) | plant injury at 125 g/ha ([10]; pre-emergence, Preemergence)
50%: pest or weed control at 62 g/ha ([3]; pre-emergence, Preemergence) | pest or weed control at 125 g/ha ([3]; pre-emergence, Preemergence) | plant injury at 125 g/ha [5, 13]
35%: plant injury at 125 g/ha ([7]; pre-emergence, Preemergence)
30%: plant injury at 62 g/ha ([10]; post-emergence, Postemergence)
55%: pest or weed control at 16 g/ha ([8]; post-emergence, Postemergence) | pest or weed control at 31 g/ha ([8]; post-emergence, Postemergence)
100%: pest or weed control at 62 g/ha ([1]; pre-emergence, Preemergence) | pest or weed control at 125 g/ha ([1]; pre-emergence, Preemergence) | pest or weed control at 31 g/ha ([2]; pre-emergence, Preemergence) | pest or weed control at 62 g/ha ([2]; pre-emergence, Preemergence) | pest or weed control at 125 g/ha ([2]; pre-emergence, Preemergence) | pest or weed control at 31 g/ha ([4]; pre-emergence, Preemergence) | pest or weed control at 62 g/ha ([4]; pre-emergence, Preemergence) | pest or weed control at 125 g/ha ([4]; pre-emergence, Preemergence) | pest or weed control at 125 g/ha ([6]; pre-emergence, Preemergence) | pest or weed control at 31 g/ha ([8]; pre-emergence, Preemergence) | pest or weed control at 62 g/ha ([8]; pre-emergence, Preemergence) | pest or weed control at 125 g/ha ([8]; pre-emergence, Preemergence) | pest or weed control at 31 g/ha ([9]; pre-emergence, Preemergence) | pest or weed control at 125 g/ha ([9]; pre-emergence, Preemergence) | pest or weed control at 62 g/ha ([11]; post-emergence, Postemergence) | pest or weed control at 125 g/ha ([11]; post-emergence, Postemergence) | pest or weed control at 16 g/ha ([11]; pre-emergence, Preemergence) | pest or weed control at 62 g/ha ([11]; pre-emergence, Preemergence) | pest or weed control at 125 g/ha ([11]; pre-emergence, Preemergence)
0%: pest or weed control at 16 g/ha ([3]; pre-emergence, Preemergence) | pest or weed control at 31 g/ha ([3]; pre-emergence, Preemergence) | pest or weed control at 16 g/ha ([6]; post-emergence, Postemergence) | pest or weed control at 31 g/ha ([6]; post-emergence, Postemergence) | pest or weed control at 16 g/ha ([6]; pre-emergence, Preemergence) | plant injury at 16 g/ha ([10]; post-emergence, Postemergence)
